Measured values: patent US11155561B2, “Substituted glutarimides as Btk inhibitors” (SHANGHAI MEIZER PHARMACEUTICALS CO., LTD., priority 2017, dated 2021)

Tests used:
Btk [1] = target: T1, Btk (Homo sapiens, UniProt Q06187); test: Inhibition activity of compounds on Btk by Caliper assay; format: biochemical; details: compound 100 nM, Btk kinase
Procedure: Example 5 Testing the Inhibition Activity of Compounds on Btk by Caliper Assay
The experimental steps were as follows:
Preparation of 1× kinase reaction buffer (50 mM HEPES, PH 7.5; 0.0015% Brij-35) and kinase reaction termination solution (100 mM HEPES, PH 7.5; 0.0015% Brij-35; 0.2% Coating Reagent; 50 mM EDTA);
Preparation of experimental samples: 100 μL of 5 μM sample solution (dissolved in 100% DMSO) was added to a 96-well plate to obtain a 50× sample solution. As a control, two wells were set containing only 100 μL of 100% DMSO on the same plate. One was served as a control without samples and the other was served as a control without enzymes. 10 μL of sample and 90 μL of 1× kinase reaction buffer were added to a 96-well plate as a transfer plate. The transfer plate was shaken for 10 minutes.
Preparation of the test plate: taking 5 μL each of the prepared samples in the 96-well transfer plate into a 384-well plate.
Kinase reaction: to 5 μL of 5× compound solution (dissolved in DMSO, diluted 10 times with water) was added 10 μL of 2.5× Btk kinase solution (kinase was diluted with 1× kinase reaction buffer), and incubated at room temperature for 10 min, then 10 μL of 2.5× substrate peptide solution (FAM-labeled peptide and ATP were diluted with 1× kinase reaction buffer) was added.
Termination of the kinase reaction: 25 μL of kinase termination solution was added after being reacted at 28° C. for a period of time.
The fluorescence (F) was tested on a Caliper and data was collected.
The inhibition rate of kinase activity was calculated: the percent inhibition rate of kinase activity=(FDMSO control−Fsample)/(FDMSO control−Fnegative control)×100, with DMSO as the solution control, and no kinase as the negative control.

Btk [2] = target: T1, Btk; test: Btk protein degradation activity by Western blot in RPMI8226 cells; format: cell-based; set-up: degradation activity of the compound (10 μM) on Btk protein in RPMI8226 cells; endogenous in cells; host or cells: RPMI8226; details: compound 10 μM, 24 hours
Procedure: Example 6 Testing the Btk Protein Degradation Activity of Compounds by Western Blot
Cell lines: RPMI8226 Cell line was cultured in RPMI1640 medium containing 10% calf serum in a 37° C., 5% CO2, and saturated humidity incubator.
DMSO control group and compound intervention group (10 μM) were set. Cells was collected after the treatment for 24 hours, then 100 μL of pre-chilled cell lysate was added and cells were lysed on ice for 30 minutes. Total cell protein was extracted, and protein concentration was determined and quantified by […] (BCA) method. After routine gelatinization, loading, electrophoresis, then transferring to membrane and blocking, rabbit anti-human Btk (1:500) was added, and incubated at 4° C. overnight. The mixture was rinsed and then horseradish peroxidase labeled goat anti-rabbit IgG (1:5000) was added. After the rinsing it was developed by the ECL developing solution, the Bio-Rad gel imaging system was used for scanning and imaging, and the computer software was used for analysis. […] (GAPDH) was used as an internal control.
Image J software was used to analyze the gray scale of each band to calculate the Btk protein degradation rate of the compound.

[3] = test system: SU-DHL-6 (human B cell lymphoma cells); test: Inhibition of proliferation of SU-DHL-6 cells by CTG assay; format: cell-based; details: compound 10 μM, 72 hours
Procedure: (§1) Example 8 Testing the Inhibitory Effect of Formula Compounds on the Proliferation of DOHH2 Cells (Human B Cell Lymphoma Cells) and SU-DHL-6 (Human B Cell Lymphoma Cells) by CTG Assay
(§2) The […] was used to determine the inhibitory effect of the compounds on the proliferation of DOHH2 cells (available from ATCC) and SU-DHL-6 cells (available from ATCC) in vitro. Cells were cultured and compounds were prepared referring to Example 7. The cell plating density was 1×10^4 cells/well for DOHH2 cells, and 1.5×10^4 cells/well for SU-DHL-6 cells. The culture time after the administration was 72 hours. After that an appropriate amount of CTG reagent was added, the luminescence value was measured, and the inhibition rate was calculated.

[4] = test system: DOHH2 cells (human B cell lymphoma cells); test: Inhibition of proliferation of DOHH2 cells by CTG assay; format: cell-based; details: DOHH-2, compound 10 μM, 72 hours
Procedure: as §1, §2

[5] = test system: RPMI 8226 cells (human multiple myeloma cells); test: Inhibition of proliferation of RPMI 8226 cells by CCK8 assay; format: cell-based; details: 48 hours
Procedure: Example 7 Testing the Inhibitory Effect of Formula Compounds on the Proliferation of RPMI 8226 Cells (Human Multiple Myeloma Cells) by CCK8 Assay
The inhibitory effect of the compound on the proliferation of RPMI 8226 cells (commercially available from ATCC) was determined by the CCK8 assay in vitro. The experimental steps were as follows:
RPMI 8226 cells were cultured in 1640 medium containing 10% calf serum, seeded in a 96-well plate with 2×10^5 cells/well, and placed in a 37° C., 5% CO2 incubator. The compound was dissolved in dimethyl sulfoxide (DMSO) to obtain a solution with a concentration of 10 mM, and then diluted to the desired concentration with a phosphate buffer solution. The solution was added to the above 96-well plate. Each concentration has 2 wells with 10 μl per well. Each concentration was tested in duplicate. As a control, DMSO was diluted in the corresponding gradient and then added to the plate.
After the 96-well plate was cultured in a 37° C., 5% CO2 cell incubator for 48 hours, 10 μl of CCK8 solution was added to each well, and it was cultured in the incubator for another 1 to 4 hours. The light absorption value at 465 nm was measured.
The relative survival rate of the cells after the compound treatment was calculated based on the light absorption value.
The IC50 of the compound against RPMI 8226 cells was calculated by software.

T1 sequence (Q06187 whole entry): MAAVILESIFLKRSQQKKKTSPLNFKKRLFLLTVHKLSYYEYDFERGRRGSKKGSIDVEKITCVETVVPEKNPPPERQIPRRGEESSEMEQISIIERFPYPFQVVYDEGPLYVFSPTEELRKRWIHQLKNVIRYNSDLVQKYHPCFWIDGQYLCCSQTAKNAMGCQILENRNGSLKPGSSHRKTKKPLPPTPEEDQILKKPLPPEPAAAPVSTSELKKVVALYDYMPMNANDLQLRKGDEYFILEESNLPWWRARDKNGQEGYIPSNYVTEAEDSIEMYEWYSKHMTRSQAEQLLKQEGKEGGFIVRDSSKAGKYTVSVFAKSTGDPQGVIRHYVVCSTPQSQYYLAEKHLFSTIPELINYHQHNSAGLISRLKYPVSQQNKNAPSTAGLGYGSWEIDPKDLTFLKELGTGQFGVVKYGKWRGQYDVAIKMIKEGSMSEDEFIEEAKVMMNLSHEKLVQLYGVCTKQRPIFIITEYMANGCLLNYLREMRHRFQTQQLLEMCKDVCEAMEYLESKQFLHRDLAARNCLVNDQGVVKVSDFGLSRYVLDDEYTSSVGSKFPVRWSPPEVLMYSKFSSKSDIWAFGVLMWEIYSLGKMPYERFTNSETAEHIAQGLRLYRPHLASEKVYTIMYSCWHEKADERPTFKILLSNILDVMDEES

SMILES	inhibition at 0.1 µM (Btk [1]) [%]	Degradation activity (Btk [2])	inhibition at 10 µM [3] [%]	inhibition at 10 µM [4] [%]	IC50 [5] [µM]
Nc1ncnc2c1c(-c1ccc(Oc3ccccc3)cc1)nn2C1CCCN(CCOCCOCCOc2cccc3c2C(=O)N(C2CCC(=O)NC2=O)C3=O)C1 (stereo not shown) [Compound 7]	99	++++ (“++++” means the degradation rate is greater than 90%)	53	63	83
Nc1ncnc2c1c(-c1ccc(Oc3ccccc3)cc1)nn2C1CCCN(CCOCCOCCNc2cccc3c2C(=O)N(C2CCC(=O)NC2=O)C3=O)C1 (stereo not shown) [Compound 14]	99	++++ (“++++” means the degradation rate is greater than 90%)	87	98	6
Nc1ncnc2c1c(-c1ccc(Oc3ccccc3)cc1)nn2[C@@H]1CCCN(CCCCCC(=O)Nc2cccc3c2C(=O)N(C2CCC(=O)NC2=O)C3=O)C1 (stereo partly shown) [Compound 3]	92	++++ (“++++” means the degradation rate is greater than 90%)	60	87	34
Nc1ncnc2c1c(-c1ccc(Oc3ccccc3)cc1)nn2C1CCCN(CCOCCOCCOCCOc2cccc3c2C(=O)N(C2CCC(=O)NC2=O)C3=O)C1 (stereo not shown) [Compound 16]	95	++++ (“++++” means the degradation rate is greater than 90%)	71	84	
